# Source: ChEMBL document CHEMBL5532646, “Discovery of 4-(N-dithiobenzyl piperazine)-1,8-naphthalimide as a potent multi-target antitumor agent with good efficacy, limited toxicity, and low resistance” (Eur J Med Chem, 2024)
# Tested on: T-24
# Experiment: Antiproliferative activity against human T24 cells incubated for 48 hrs by MTT assay
# Format: functional, cell-based
# Settings: T-24, 48 h
row,SMILES,IC50 [µM]
1,O=C(c1ccccc1)N1CCN(c2ccc3c4c(cccc24)C(=O)N(CCc2ccc(O)c(O)c2)C3=O)CC1,26.5
2,CC(C)(C)OC(=O)N1CCN(c2ccc3c4c(cccc24)C(=O)N(Cc2ccccc2)C3=O)CC1,> 50
3,O=C1c2cccc3c(N4CCN(C(=S)SCc5ccccc5)CC4)ccc(c23)C(=O)N1Nc1ccccc1,22.4
4,O=C(c1ccccc1)N1CCN(c2ccc3c4c(cccc24)C(=O)N(Nc2nc4ccccc4s2)C3=O)CC1,24.1
5,CNCCCN1C(=O)c2cccc3c(N4CCN(C(=O)c5ccccc5)CC4)ccc(c23)C1=O,6.25
6,CNCCCN1C(=O)c2cccc3c(N4CCN(C(=O)OC(C)(C)C)CC4)ccc(c23)C1=O,8.45
7,O=C1c2cccc3c(N4CCN(C(=S)SCc5ccccc5)CC4)ccc(c23)C(=O)N1CCc1ccc2c(c1)OCO2,14.6
8,CCCCN1C(=O)c2cccc3c(N4CCN(C(=O)c5ccccc5)CC4)ccc(c23)C1=O,10.4
9,CC(C)(C)OC(=O)N1CCN(c2ccc3c4c(cccc24)C(=O)N(Cc2ccc(Cl)cc2)C3=O)CC1,21.3
10,O=C1c2cccc3c(N4CCN(C(=S)SCc5ccccc5)CC4)ccc(c23)C(=O)N1Cc1ccccc1,31.7
11,CC(C)(C)OC(=O)N1CCN(c2ccc3c4c(cccc24)C(=O)N(CCc2ccc(O)c(O)c2)C3=O)CC1,25.1
12,O=C(c1ccccc1)N1CCN(c2ccc3c4c(cccc24)C(=O)N(Nc2ccccn2)C3=O)CC1,32.4
13,CC(C)(C)OC(=O)N1CCN(c2ccc3c4c(cccc24)C(=O)N(CCO)C3=O)CC1,7.41
14,O=C(c1ccccc1)N1CCN(c2ccc3c4c(cccc24)C(=O)N(CCO)C3=O)CC1,20.4
15,O=C(c1ccccc1)N1CCN(c2ccc3c4c(cccc24)C(=O)N(Cc2ccccc2)C3=O)CC1,17.7
16,O=C1c2cccc3c(N4CCN(C(=S)SCc5ccccc5)CC4)ccc(c23)C(=O)N1CCO,16.4

# Tested on: SK-OV-3
# Experiment: Antiproliferative activity against human SK-OV-3 cells incubated for 48 hrs by MTT assay
# Format: functional, cell-based
# Settings: SK-OV-3, 48 h
row,IC50 [µM],SMILES
1,> 50,CC(C)(C)OC(=O)N1CCN(c2ccc3c4c(cccc24)C(=O)N(Cc2ccccc2)C3=O)CC1
2,6.06,CNCCCN1C(=O)c2cccc3c(N4CCN(C(=O)c5ccccc5)CC4)ccc(c23)C1=O
3,13.1,CNCCCN1C(=O)c2cccc3c(N4CCN(C(=O)OC(C)(C)C)CC4)ccc(c23)C1=O
4,15.4,CCCCN1C(=O)c2cccc3c(N4CCN(C(=O)c5ccccc5)CC4)ccc(c23)C1=O
5,22.6,CC(C)(C)OC(=O)N1CCN(c2ccc3c4c(cccc24)C(=O)N(Cc2ccc(Cl)cc2)C3=O)CC1
6,26.4,CC(C)(C)OC(=O)N1CCN(c2ccc3c4c(cccc24)C(=O)N(CCc2ccc(O)c(O)c2)C3=O)CC1
7,9.13,CC(C)(C)OC(=O)N1CCN(c2ccc3c4c(cccc24)C(=O)N(CCO)C3=O)CC1
8,16.4,O=C(c1ccccc1)N1CCN(c2ccc3c4c(cccc24)C(=O)N(CCO)C3=O)CC1
9,14.3,O=C1c2cccc3c(N4CCN(C(=S)SCc5ccccc5)CC4)ccc(c23)C(=O)N1CCO

# Further lines, the molecule ahead of its results:
row,SMILES,IC50 [µM]
1,O=C(c1ccccc1)N1CCN(c2ccc3c4c(cccc24)C(=O)N(CCc2ccc(O)c(O)c2)C3=O)CC1,21.4
2,O=C1c2cccc3c(N4CCN(C(=S)SCc5ccccc5)CC4)ccc(c23)C(=O)N1Nc1ccccc1,30.8
3,O=C(c1ccccc1)N1CCN(c2ccc3c4c(cccc24)C(=O)N(Nc2nc4ccccc4s2)C3=O)CC1,19.4
4,O=C1c2cccc3c(N4CCN(C(=S)SCc5ccccc5)CC4)ccc(c23)C(=O)N1CCc1ccc2c(c1)OCO2,10.5
5,O=C1c2cccc3c(N4CCN(C(=S)SCc5ccccc5)CC4)ccc(c23)C(=O)N1Cc1ccccc1,30
6,O=C(c1ccccc1)N1CCN(c2ccc3c4c(cccc24)C(=O)N(Nc2ccccn2)C3=O)CC1,29.5
7,O=C(c1ccccc1)N1CCN(c2ccc3c4c(cccc24)C(=O)N(Cc2ccccc2)C3=O)CC1,22.4

# Tested on: HepG2
# Experiment: Antiproliferative activity against human HepG2 cells incubated for 48 hrs by MTT assay
# Format: functional, cell-based
# Settings: HepG2, 48 h
row,IC50 [µM],SMILES
1,> 50,CC(C)(C)OC(=O)N1CCN(c2ccc3c4c(cccc24)C(=O)N(Cc2ccccc2)C3=O)CC1
2,4.41,CNCCCN1C(=O)c2cccc3c(N4CCN(C(=O)c5ccccc5)CC4)ccc(c23)C1=O
3,9.75,CNCCCN1C(=O)c2cccc3c(N4CCN(C(=O)OC(C)(C)C)CC4)ccc(c23)C1=O
4,14.3,CCCCN1C(=O)c2cccc3c(N4CCN(C(=O)c5ccccc5)CC4)ccc(c23)C1=O
5,23.2,CC(C)(C)OC(=O)N1CCN(c2ccc3c4c(cccc24)C(=O)N(Cc2ccc(Cl)cc2)C3=O)CC1
6,30.5,CC(C)(C)OC(=O)N1CCN(c2ccc3c4c(cccc24)C(=O)N(CCc2ccc(O)c(O)c2)C3=O)CC1
7,7.62,CC(C)(C)OC(=O)N1CCN(c2ccc3c4c(cccc24)C(=O)N(CCO)C3=O)CC1
8,17.4,O=C(c1ccccc1)N1CCN(c2ccc3c4c(cccc24)C(=O)N(CCO)C3=O)CC1
9,16.8,O=C1c2cccc3c(N4CCN(C(=S)SCc5ccccc5)CC4)ccc(c23)C(=O)N1CCO

# Second part, the molecule before the results:
row,SMILES,IC50 [µM]
1,O=C(c1ccccc1)N1CCN(c2ccc3c4c(cccc24)C(=O)N(CCc2ccc(O)c(O)c2)C3=O)CC1,28.5
2,O=C1c2cccc3c(N4CCN(C(=S)SCc5ccccc5)CC4)ccc(c23)C(=O)N1Nc1ccccc1,28.4
3,O=C(c1ccccc1)N1CCN(c2ccc3c4c(cccc24)C(=O)N(Nc2nc4ccccc4s2)C3=O)CC1,22.4
4,O=C1c2cccc3c(N4CCN(C(=S)SCc5ccccc5)CC4)ccc(c23)C(=O)N1CCc1ccc2c(c1)OCO2,11.8
5,O=C1c2cccc3c(N4CCN(C(=S)SCc5ccccc5)CC4)ccc(c23)C(=O)N1Cc1ccccc1,40.6
6,O=C(c1ccccc1)N1CCN(c2ccc3c4c(cccc24)C(=O)N(Nc2ccccn2)C3=O)CC1,38.5
7,O=C(c1ccccc1)N1CCN(c2ccc3c4c(cccc24)C(=O)N(Cc2ccccc2)C3=O)CC1,26.8

# Tested on: MGC-803
# Experiment: Antiproliferative activity against human MGC-803 cells incubated for 48 hrs by MTT assay
# Format: functional, cell-based
# Settings: MGC-803, 48 h
row,IC50 [µM],SMILES
1,> 50,CC(C)(C)OC(=O)N1CCN(c2ccc3c4c(cccc24)C(=O)N(Cc2ccccc2)C3=O)CC1
2,8.09,CNCCCN1C(=O)c2cccc3c(N4CCN(C(=O)c5ccccc5)CC4)ccc(c23)C1=O
3,17.4,CNCCCN1C(=O)c2cccc3c(N4CCN(C(=O)OC(C)(C)C)CC4)ccc(c23)C1=O
4,11.2,CCCCN1C(=O)c2cccc3c(N4CCN(C(=O)c5ccccc5)CC4)ccc(c23)C1=O
5,25.3,CC(C)(C)OC(=O)N1CCN(c2ccc3c4c(cccc24)C(=O)N(Cc2ccc(Cl)cc2)C3=O)CC1
6,32.4,CC(C)(C)OC(=O)N1CCN(c2ccc3c4c(cccc24)C(=O)N(CCc2ccc(O)c(O)c2)C3=O)CC1
7,8.81,CC(C)(C)OC(=O)N1CCN(c2ccc3c4c(cccc24)C(=O)N(CCO)C3=O)CC1
8,19.5,O=C(c1ccccc1)N1CCN(c2ccc3c4c(cccc24)C(=O)N(CCO)C3=O)CC1
9,18.5,O=C1c2cccc3c(N4CCN(C(=S)SCc5ccccc5)CC4)ccc(c23)C(=O)N1CCO

# Further lines, the molecule ahead of its results:
row,SMILES,IC50 [µM]
1,O=C(c1ccccc1)N1CCN(c2ccc3c4c(cccc24)C(=O)N(CCc2ccc(O)c(O)c2)C3=O)CC1,25.8
2,O=C1c2cccc3c(N4CCN(C(=S)SCc5ccccc5)CC4)ccc(c23)C(=O)N1Nc1ccccc1,19.4
3,O=C(c1ccccc1)N1CCN(c2ccc3c4c(cccc24)C(=O)N(Nc2nc4ccccc4s2)C3=O)CC1,27.5
4,O=C1c2cccc3c(N4CCN(C(=S)SCc5ccccc5)CC4)ccc(c23)C(=O)N1CCc1ccc2c(c1)OCO2,12.1
5,O=C1c2cccc3c(N4CCN(C(=S)SCc5ccccc5)CC4)ccc(c23)C(=O)N1Cc1ccccc1,38.9
6,O=C(c1ccccc1)N1CCN(c2ccc3c4c(cccc24)C(=O)N(Nc2ccccn2)C3=O)CC1,35.3
7,O=C(c1ccccc1)N1CCN(c2ccc3c4c(cccc24)C(=O)N(Cc2ccccc2)C3=O)CC1,23.5
